Measured values reported in the supplement of paper PMC10307832.

How the values were obtained:
Test in all cases: relative viability (nuclei count vs DMSO), 5 days (fraction); higher = more cells survive
NCI-H2023 = tested on: NCI-H2023
Summary of the method: (§1)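 Lung cancer cell lines were pin-tool dosed in 1536-well plates on the day after seeding, with either a lone drug or a fixed anchor-drug dose plus five library-drug doses (not always all listed) in √10 steps. Nuclei were counted on 4× images after 5 days. Relative viability is the ratio of treated-well to vehicle-well nuclei counts, with each value a median of duplicate plates.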

UMC-11 = tested on: UMC-11
Summary of the method: as §1

NCI-H1734 = tested on: NCI-H1734
Summary of the method: as §1

HCC-78 = tested on: HCC-78
Summary of the method: as §1

RERF-LC-KJ = tested on: RERF-LC-KJ
Summary of the method: as §1

NCI-H1793 = tested on: NCI-H1793
Summary of the method: as §1

NCI-H1792 = tested on: NCI-H1792
Summary of the method: as §1

NCI-H1395 = tested on: NCI-H1395
Summary of the method: as §1

NCI-H23 = tested on: NCI-H23
Summary of the method: as §1

NCI-H1437 = tested on: NCI-H1437
Summary of the method: as §1

NCI-H1915 = tested on: NCI-H1915
Summary of the method: as §1

SK-LU-1 = tested on: SK-LU-1
Summary of the method: as §1

NCI-H2405 = tested on: NCI-H2405
Summary of the method: as §1

LCLC-103H = tested on: LCLC-103H
Summary of the method: as §1

NCI-H661 = tested on: NCI-H661
Summary of the method: as §1

201T = tested on: 201T
Summary of the method: as §1

NCI-H1651 = tested on: NCI-H1651
Summary of the method: as §1

LOU-NH91 = tested on: LOU-NH91
Summary of the method: as §1

EMC-BAC-2 = tested on: EMC-BAC-2
Summary of the method: as §1

NCI-H1975 = tested on: NCI-H1975
Summary of the method: as §1

EPLC-272H = tested on: EPLC-272H
Summary of the method: as §1

ABC-1 = tested on: ABC-1
Summary of the method: as §1

NCI-H647 = tested on: NCI-H647
Summary of the method: as §1

Compound: O=C(O)CCCCC(CCSCc1ccccc1)SCc1ccccc1 (stereo not given) [CPI-613] + CC(=O)c1c(C)c2cnc(Nc3ccc(N4CCNCC4)cn3)nc2n(C2CCCC2)c1=O [Palbociclib] (partner 0.5 µM)
- relative viability (NCI-H2023; first compound 5 µM): 0.335
- relative viability (NCI-H2023; first compound 15.81 µM): 0.323
- relative viability (NCI-H2023; first compound 50 µM): 0.35
- relative viability (NCI-H2023; first compound 158.11 µM): 0.0317
- relative viability (NCI-H2023; first compound 500 µM): 0.0063
- relative viability (UMC-11; first compound 5 µM): 0.346
- relative viability (UMC-11; first compound 15.81 µM): 0.354
- relative viability (UMC-11; first compound 50 µM): 0.323
- relative viability (UMC-11; first compound 158.11 µM): 0.23
- relative viability (UMC-11; first compound 500 µM): 0.216
- relative viability (NCI-H1734; first compound 5 µM): 0.314
- relative viability (NCI-H1734; first compound 15.81 µM): 0.274
- relative viability (NCI-H1734; first compound 50 µM): 0.335
- relative viability (NCI-H1734; first compound 158.11 µM): 0.199
- relative viability (NCI-H1734; first compound 500 µM): 0.144
- relative viability (HCC-78; first compound 5 µM): 0.462
- relative viability (HCC-78; first compound 15.81 µM): 0.527
- relative viability (HCC-78; first compound 50 µM): 0.473
- relative viability (HCC-78; first compound 158.11 µM): 0.447
- relative viability (HCC-78; first compound 500 µM): 0.427
- relative viability (RERF-LC-KJ; first compound 5 µM): 1.07
- relative viability (RERF-LC-KJ; first compound 15.81 µM): 0.952
- relative viability (RERF-LC-KJ; first compound 50 µM): 1.09
- relative viability (RERF-LC-KJ; first compound 158.11 µM): 0.615
- relative viability (RERF-LC-KJ; first compound 500 µM): 0.571
- relative viability (NCI-H1793; first compound 5 µM): 0.269
- relative viability (NCI-H1793; first compound 15.81 µM): 0.33
- relative viability (NCI-H1793; first compound 50 µM): 0.258
- relative viability (NCI-H1793; first compound 158.11 µM): 0.112
- relative viability (NCI-H1793; first compound 500 µM): 0.0566
- relative viability (NCI-H1792; first compound 5 µM): 0.627
- relative viability (NCI-H1792; first compound 15.81 µM): 0.607
- relative viability (NCI-H1792; first compound 50 µM): 0.654
- relative viability (NCI-H1792; first compound 158.11 µM): 0.632
- relative viability (NCI-H1792; first compound 500 µM): 0.666
- relative viability (NCI-H1395; first compound 5 µM): 0.619
- relative viability (NCI-H1395; first compound 15.81 µM): 0.641
- relative viability (NCI-H1395; first compound 50 µM): 0.601
- relative viability (NCI-H1395; first compound 158.11 µM): 0.57
- relative viability (NCI-H1395; first compound 500 µM): 0.486
- relative viability (NCI-H23; first compound 5 µM): 0.465
- relative viability (NCI-H23; first compound 15.81 µM): 0.465
- relative viability (NCI-H23; first compound 50 µM): 0.519
- relative viability (NCI-H23; first compound 158.11 µM): 0.104
- relative viability (NCI-H23; first compound 500 µM): 0.0119
- relative viability (NCI-H1437; first compound 5 µM): 0.284
- relative viability (NCI-H1437; first compound 15.81 µM): 0.281
- relative viability (NCI-H1437; first compound 50 µM): 0.292
- relative viability (NCI-H1437; first compound 158.11 µM): 0.0875
- relative viability (NCI-H1437; first compound 500 µM): 0.026
- relative viability (NCI-H1915; first compound 5 µM): 0.5
- relative viability (NCI-H1915; first compound 15.81 µM): 0.494
- relative viability (NCI-H1915; first compound 50 µM): 0.506
- relative viability (NCI-H1915; first compound 158.11 µM): 0.23
- relative viability (NCI-H1915; first compound 500 µM): 0.0812
- relative viability (SK-LU-1; first compound 5 µM): 0.422
- relative viability (SK-LU-1; first compound 15.81 µM): 0.392
- relative viability (SK-LU-1; first compound 50 µM): 0.276
- relative viability (SK-LU-1; first compound 158.11 µM): 0.32
- relative viability (SK-LU-1; first compound 500 µM): 0.202
- relative viability (NCI-H2405; first compound 5 µM): 0.558
- relative viability (NCI-H2405; first compound 15.81 µM): 0.499
- relative viability (NCI-H2405; first compound 50 µM): 0.453
- relative viability (NCI-H2405; first compound 158.11 µM): 0.167
- relative viability (NCI-H2405; first compound 500 µM): 0.316
- relative viability (LCLC-103H; first compound 5 µM): 0.464
- relative viability (LCLC-103H; first compound 15.81 µM): 0.456
- relative viability (LCLC-103H; first compound 50 µM): 0.455
- relative viability (LCLC-103H; first compound 158.11 µM): 0.343
- relative viability (LCLC-103H; first compound 500 µM): 0.213
- relative viability (NCI-H661; first compound 5 µM): 0.404
- relative viability (NCI-H661; first compound 15.81 µM): 0.374
- relative viability (NCI-H661; first compound 50 µM): 0.387
- relative viability (NCI-H661; first compound 158.11 µM): 0.24
- relative viability (NCI-H661; first compound 500 µM): 0.132
- relative viability (201T; first compound 5 µM): 0.341
- relative viability (201T; first compound 15.81 µM): 0.34
- relative viability (201T; first compound 50 µM): 0.353
- relative viability (201T; first compound 158.11 µM): 0.185
- relative viability (201T; first compound 500 µM): 0.204
- relative viability (NCI-H1651; first compound 5 µM): 0.51
- relative viability (NCI-H1651; first compound 15.81 µM): 0.466
- relative viability (NCI-H1651; first compound 50 µM): 0.487
- relative viability (NCI-H1651; first compound 158.11 µM): 0.46
- relative viability (NCI-H1651; first compound 500 µM): 0.514
- relative viability (LOU-NH91; first compound 5 µM): 0.506
- relative viability (LOU-NH91; first compound 15.81 µM): 0.548
- relative viability (LOU-NH91; first compound 50 µM): 0.522
- relative viability (LOU-NH91; first compound 158.11 µM): 0.402
- relative viability (LOU-NH91; first compound 500 µM): 0.435
- relative viability (EMC-BAC-2; first compound 5 µM): 0.524
- relative viability (EMC-BAC-2; first compound 15.81 µM): 0.506
- relative viability (EMC-BAC-2; first compound 50 µM): 0.514
- relative viability (EMC-BAC-2; first compound 158.11 µM): 0.267
- relative viability (EMC-BAC-2; first compound 500 µM): 0.265
- relative viability (NCI-H1975; first compound 5 µM): 0.638
- relative viability (NCI-H1975; first compound 15.81 µM): 0.645
- relative viability (NCI-H1975; first compound 50 µM): 0.388
- relative viability (NCI-H1975; first compound 158.11 µM): 0.562
- relative viability (NCI-H1975; first compound 500 µM): 0.0655
- relative viability (EPLC-272H; first compound 5 µM): 0.348
- relative viability (EPLC-272H; first compound 15.81 µM): 0.315
- relative viability (EPLC-272H; first compound 50 µM): 0.306
- relative viability (EPLC-272H; first compound 158.11 µM): 0.316
- relative viability (EPLC-272H; first compound 500 µM): 0.259
- relative viability (ABC-1; first compound 5 µM): 0.603
- relative viability (ABC-1; first compound 15.81 µM): 0.669
- relative viability (ABC-1; first compound 50 µM): 0.639
- relative viability (ABC-1; first compound 158.11 µM): 0.415
- relative viability (ABC-1; first compound 500 µM): 0.4
- relative viability (NCI-H647; first compound 5 µM): 0.341
- relative viability (NCI-H647; first compound 15.81 µM): 0.312
- relative viability (NCI-H647; first compound 50 µM): 0.316
- relative viability (NCI-H647; first compound 158.11 µM): 0.022
- relative viability (NCI-H647; first compound 500 µM): 0.0072
